Earlier results as cited in patent US20160128954A1 (Raptor Pharmaceuticals Inc., priority 2014, published 2016).

What was measured:
[1] = in vivo
[2] = system: mice with the gene mutation for Huntington's disease (HD); details: mouse, in vivo
HD patients = details: five patients over 2 weeks
[3] = system: circulating white blood cells

Row | SMILES | crossing of the blood-brain barrier [1] | effect on tremors and life span [2] | efficacy in HD (HD patients) | time to decrease in leukocyte cystine ([3]; delivery into the small intestine (WO 2007/089670)) | depletion of intracellular cystine ([3]; taken regularly, measured in circulating white blood cells)
1 | NCCSSCCN [cystamine, Cystamine] | does not, or corsses less efficiently than cysteamine | alleviate tremors and prolong life |  |  | 
2 | NCCS [cysteamine, Cysteamine (HS—CH2—CH2—NH2)] | crosses the blood-brain barrier |  | no efficacy | within an hour | up to 90%
